“And” between values parts separate entries of the source, which are not always exact repeats. Equal values may be shown once.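 Grown in 96-well plates, cells were treated for 48 hours with each compound at five concentrations. Insufficient inhibition: endpoint recorded as highest concentration tested. Here, GI50 denotes the concentration required for 50% inhibition of growth. TGI: total growth inhibition.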
Assays:
Test in all cases: NCI-60 cell line screen, 48 h
A498 renal = system: A498 renal
SF-295 CNS = system: SF-295 CNS
T-47D breast = system: T-47D breast
A549 NSCLC = system: A549 NSCLC
PC-3 prostate = system: PC-3 prostate
CAKI-1 renal = system: CAKI-1 renal
SF-268 CNS = system: SF-268 CNS
ACHN renal = system: ACHN renal
OVCAR-3 ovarian = system: OVCAR-3 ovarian
HOP-92 NSCLC = system: HOP-92 NSCLC

SMILES | TGI (A498 renal) | TGI (SF-295 CNS) | TGI (T-47D breast) [µM] | TGI (A549 NSCLC) [µM] | TGI (PC-3 prostate) [µM] | TGI (CAKI-1 renal) [µM] | TGI (SF-268 CNS) [µM] | TGI (ACHN renal) [µM] | TGI (OVCAR-3 ovarian) [µM] | TGI (HOP-92 NSCLC) | GI50 (A498 renal) | GI50 (SF-295 CNS) | GI50 (T-47D breast) [µM] | GI50 (A549 NSCLC) [µM] | GI50 (PC-3 prostate) [µM] | GI50 (CAKI-1 renal) [µM] | GI50 (SF-268 CNS) [µM] | GI50 (ACHN renal) [µM] | GI50 (OVCAR-3 ovarian) [µM] | GI50 (HOP-92 NSCLC)
O=C1C=CC2(O[C@@H](Cc3ccccc3)[C@H](Cc3ccccc3)O2)C(SC(=O)c2ccccc2)C1 (stereo partly drawn) | 16.2 µM | 4.28 µM | 11.3 | 16.1 | 3.69 | 3.71 | 2.44 | 2.43 | 2.24 | 3.05 µM |  |  |  |  |  |  |  |  |  | 
Cc1cccc2c(N)c3cccc(C(=O)NCC[N+](C)(C)Cc4sc(N5CCOCC5)nc4[N+](=O)[O-])c3nc12 | 37.3 µM | 14.3 µM | > 100 | 2.55 | 16.8 | 4.64 | > 100 | 2.28 | 14.6 | > 100 µM |  |  |  |  |  |  |  |  |  | 
Oc1c(I)cc(I)cc1CNCCCN(Cc1ccccn1)Cc1ccccn1 | 1.32 µM | 1.74 µM | 5.83 | 3.82 | 3.02 | 1.74 | 3.21 | 1.65 | 1.85 | 2.48 µM | 0.661 µM | 0.885 µM | 1.49 | 1.32 | 1.17 | 0.896 | 1.18 | 0.912 | 0.948 | 0.985 µM
COc1ccc(N2C(=O)C3c4[nH]c5ccccc5c4C4CCC(C(C)C)CC4C3C2=O)cc1 (stereo not drawn) | > 100 µM | > 100 µM | > 100 | > 100 | > 100 | > 100 | > 100 | > 100 | > 100 | > 100 µM |  |  |  |  |  |  |  |  |  | 
N#CC1N(C(=O)c2ccc(F)cc2)c2ccccc2N1C(=O)c1ccc(F)cc1 | > 100 µM | > 100 µM | > 100 | > 100 | > 100 | > 100 | > 100 | > 100 | > 100 | 68.8 µM |  |  |  |  |  |  |  |  |  | 
CC1=CC(=O)c2cccc(NC3=NCCO3)c21 | > 100 µM | > 100 µM | > 100 | > 100 | > 100 | > 100 | > 100 | > 100 | 90.4 | 77.7 µM |  |  |  |  |  |  |  |  |  | 
CC(C)OC(=O)c1ccc(CCC2=CC(=O)C(Br)=CC2=O)cc1 | > 85 µM | 39.6 µM | 45 | > 100 | 31.8 | 38.4 | 32.3 | 27.8 | 29 | 24.9 µM |  |  |  |  |  |  |  |  |  | 
COC(=O)C1(NC(=O)C(N)CC(=O)O)C(C)C1C (stereo not drawn) | > 100 µM | > 100 µM | > 100 | > 100 | > 100 | > 100 | > 100 | > 100 | > 100 | > 100 µM |  |  |  |  |  |  |  |  |  | 
COC(=O)C[C@H](COCc1ccccc1)NC(=O)C[C@H](COCc1ccccc1)NC(=O)C[C@H](COCc1ccccc1)NC(=O)OC(C)(C)C | 67.1 µM | > 100 µM | > 100 | > 100 | 41.2 | > 100 | > 100 | > 100 | > 100 | 73.5 µM |  |  |  |  |  |  |  |  |  | 
COC(=O)C1=C(OC(=O)/C(=C/c2ccc(Cl)cc2)c2ccccc2)C(C(=O)OC)[C@@]2(O)[C@@H](C(=O)OC)[C@H](C)C[C@@H]1[C@@H]2C(=O)OC (stereo partly drawn) | > 100 µM | > 100 µM | > 100 | > 100 | > 100 | > 100 | > 100 | > 100 | > 100 | > 100 µM |  |  |  |  |  |  |  |  |  | 
Brc1cccc(C2(CCCC3(c4cccc(Br)n4)OCCO3)OCCO2)n1 | > 100 µM | > 100 µM | > 100 | > 100 | > 100 | > 100 | 71.5 | > 100 | > 100 | > 100 µM |  |  |  |  |  |  |  |  |  | 
Oc1[nH]c2ccccc2c1N=NC(=S)N1CCCCCC1 | 2.3 µM | 3.86 µM | 17.6 | 6.57 | 10.6 | 4.62 | 11.8 | 8.73 | 1.49 | 6.55 µM |  |  |  |  |  |  |  |  |  | 
CC(=O)Oc1ccc(OC(Oc2ccccc2)c2ccccc2)cc1 (stereo not drawn) | 43.5 µM | > 100 µM | > 100 | > 100 | > 100 | 55.7 | > 100 | 72.1 | 49.5 | 34.9 µM |  |  |  |  |  |  |  |  |  | 
C1OCN2c3nonc3N3COCN4c5nonc5N1C2C43 (stereo not drawn) | > 100 µM | > 100 µM | > 100 | > 100 | > 100 | > 100 | > 100 | > 100 | > 100 | > 100 µM |  |  |  |  |  |  |  |  |  | 
COc1cc2c3c(cc(Cl)nc3c1OC)C(O)(CC(C)=O)C(=O)N2 (stereo not drawn) | 33.2 µM | > 100 µM | > 100 | > 62.3 | > 56.4 | 37.7 | 18 | > 54 | > 100 | 34.3 µM |  |  |  |  |  |  |  |  |  | 
CC(=O)O[C@H]1CC[C@@]2(C)C(=CC[C@@H]3[C@@H]2CC[C@]2(C)c4nc(N)c(C#N)cc4C[C@@H]32)C1 | > 100 µM | > 100 µM | > 96.6 | > 100 | > 100 | > 100 | > 100 | > 100 | 23.8 | > 100 µM |  |  |  |  |  |  |  |  |  | 
CCN(CC)C(=S)SNCCc1ccc(S(N)(=O)=O)cc1 | > 65.1 µM | 47.5 µM | 45.1 | 26.5 | 26.9 | 29 | 35.9 | 34.3 | 43.9 | 35.1 µM |  |  |  |  |  |  |  |  |  | 
O=C(CCc1cc(O)cc(O)c1)NCCc1ccc(O)c(O)c1 | > 100 µM | > 100 µM | > 100 | > 100 | > 100 | > 100 | > 100 | > 100 | > 100 | > 100 µM |  |  |  |  |  |  |  |  |  | 
CCCCCCC(CCl)c1sc(-c2csc(CCNC(=O)OC(C)(C)C)n2)nc1C(=O)OC (stereo not drawn) | > 100 µM | > 100 µM | 13 | > 100 | 63.8 | > 100 | 52.4 | 81.6 | 86.8 | 69.7 µM |  |  |  |  |  |  |  |  |  | 
O=c1c2cc(-c3ccccc3)cnc2sn1-c1ccc([N+](=O)[O-])cc1 | > 100 µM | > 100 µM | > 100 | > 100 | > 100 | > 100 | > 100 | > 100 | 60.2 | > 100 µM |  |  |  |  |  |  |  |  |  | 
Cc1ccc(S(=O)(=O)n2cc(-c3cnc(N)c(Br)n3)c3ccccc32)cc1 | > 24.8 µM | > 100 µM | > 100 | > 100 | > 31.1 | > 100 | > 100 | > 89.4 | > 45.7 | > 27.5 µM |  |  |  |  |  |  |  |  |  | 
c1ccc(C(=NNc2nc3ccccc3[nH]2)c2ccccn2)nc1 | 4.94 µM | 35.4 µM | > 100 | > 89.9 | 5.43 | 2.07 | > 55.3 | 0.698 | > 100 | 0.182 µM |  |  |  |  |  |  |  |  |  | 
CC(=O)NC1C(OCc2ccccc2)OC(CO)C(O)C1OCC(=O)NC(C)C(=O)NC(CCC(=O)NCCCCCC(=O)Nc1ccc2c(c1)CN1C(=O)c3ccccc3C1=N2)C(N)=O (stereo not drawn) | > 100 µM | > 100 µM | > 100 | > 100 | > 100 | > 100 | > 100 | > 100 | > 100 | 90.9 µM |  |  |  |  |  |  |  |  |  | 
COc1ccc2[nH]c(C(=O)N3CC(CCl)c4ccc([N+](=O)[O-])cc43)cc2c1 (stereo not drawn) | > 100 µM | > 100 µM | > 100 | > 100 | > 100 | > 100 | > 100 | > 100 | > 100 | > 100 µM |  |  |  |  |  |  |  |  |  | 
c1ccc([C@H]2CN3CCSC3=N2)cc1 | > 100 µM | > 100 µM | > 100 | > 100 | > 100 | > 100 | > 100 | > 100 | > 100 | > 100 µM |  |  |  |  |  |  |  |  |  | 
Cc1cc(=O)c2c(O)c3c(O)cc(O)c4c5c(O)cc(O)c6c(O)c7c(=O)cc(C)c8c1c2c(c34)c(c65)c78 | > 100 µM and 75.6 µM | > 100 µM and 37.6 µM | > 100 | > 100 | > 100 | > 100 | > 100 | > 100 | > 100 | > 100 µM and 47.4 µM | 64.9 µM and 28.9 µM | > 100 µM and 16.6 µM |  |  |  |  |  |  |  | 36.7 µM and 15.1 µM

Source: PubChem BioAssay (NCI)
